Measurements taken from patent publication US9650339B2, “Inhibitors of histone demethylases” (Gilead Sciences, Inc., priority 2013, dated 2017).

Experiments:
KDM5B = target: T1, KDM5B (Homo sapiens, UniProt Q9UGL1); test: Histone lysine demethylase immunofluorescence assay, U2OS cells transfected with KDM5B; assay type: cell-based; conditions: U2OS cells transfected with pCMVHA KDM5B; mark detected H3K4me2; 20 hours
T1 construct: (a.a. 1-752); host or cells: U2OS
T1 sequence (Q9UGL1 1-752): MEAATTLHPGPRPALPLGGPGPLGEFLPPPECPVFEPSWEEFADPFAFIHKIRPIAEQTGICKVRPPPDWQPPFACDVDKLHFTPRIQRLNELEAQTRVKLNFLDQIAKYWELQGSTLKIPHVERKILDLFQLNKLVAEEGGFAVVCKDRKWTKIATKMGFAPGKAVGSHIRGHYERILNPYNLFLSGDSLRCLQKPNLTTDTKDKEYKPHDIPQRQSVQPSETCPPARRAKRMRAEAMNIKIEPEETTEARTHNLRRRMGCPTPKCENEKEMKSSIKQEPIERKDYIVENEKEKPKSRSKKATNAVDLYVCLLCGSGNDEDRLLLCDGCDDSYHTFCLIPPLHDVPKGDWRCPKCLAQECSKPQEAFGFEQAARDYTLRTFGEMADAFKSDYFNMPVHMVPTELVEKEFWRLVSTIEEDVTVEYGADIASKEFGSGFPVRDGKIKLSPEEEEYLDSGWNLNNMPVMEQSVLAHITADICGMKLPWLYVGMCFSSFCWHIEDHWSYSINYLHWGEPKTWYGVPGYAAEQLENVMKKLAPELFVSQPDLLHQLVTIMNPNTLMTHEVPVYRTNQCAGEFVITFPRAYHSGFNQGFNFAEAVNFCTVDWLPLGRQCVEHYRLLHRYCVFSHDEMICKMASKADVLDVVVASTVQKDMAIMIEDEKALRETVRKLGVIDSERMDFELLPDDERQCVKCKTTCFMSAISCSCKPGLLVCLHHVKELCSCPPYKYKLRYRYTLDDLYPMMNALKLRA
Method in brief: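 U2OS cells were transiently transfected with HA-tagged demethylase and reseeded after 6 h into compound-containing DMEM/10% FBS for 20 h. Cells were fixed in formaldehyde and immunostained for HA and the relevant histone methyl mark, then imaged. IC50 is based on mean mark staining in HA+ transfected cells.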

KDM4A (JMJD2A) = target: T2, KDM4A (JMJD2A) (Homo sapiens, UniProt O75164); test: Histone lysine demethylase AlphaLISA assay, KDM4A; assay type: biochemical; conditions: read-out: KDM4A HDME Inhibition IC50
T2 construct: 1-350; purchased BPS Bioscience, US; host or cells: E. coli
T2 sequence (O75164 1-350): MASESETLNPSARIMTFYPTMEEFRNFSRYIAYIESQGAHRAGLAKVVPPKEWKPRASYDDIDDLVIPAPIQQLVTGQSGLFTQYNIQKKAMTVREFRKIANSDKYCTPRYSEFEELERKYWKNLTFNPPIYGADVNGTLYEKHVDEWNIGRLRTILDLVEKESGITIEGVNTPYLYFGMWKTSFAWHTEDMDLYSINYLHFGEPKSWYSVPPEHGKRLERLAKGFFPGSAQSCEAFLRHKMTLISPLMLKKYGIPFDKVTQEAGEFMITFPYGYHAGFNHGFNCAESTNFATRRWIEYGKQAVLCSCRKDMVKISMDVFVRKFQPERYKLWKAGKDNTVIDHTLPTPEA
Method in brief: (§1)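 Biotinylated methylated H3 peptides (K9, K4, K27 or K36 marks) served as substrate, with 25 μM L-Asc and 10 μM α-KG. Enzymes were preincubated 10 min, then exposed to compounds (3% DMSO solutions) 10 min; product detected by AlphaLISA acceptor and streptavidin donor beads at room temperature in dark.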

KDM6B (JMJD3) = target: T3, KDM6B (JMJD3) (Homo sapiens, UniProt O15054); test: Histone lysine demethylase AlphaLISA assay, KDM6B; assay type: biochemical; conditions: read-out: KDM6B HDME Inhibition IC50
T3 construct: 1043-end; purchased BPS; host or cells: Bac (baculovirus system)
Method in brief: as §1

KDM5C (JARID1C) = target: T4, KDM5C (JARID1C) (Homo sapiens, UniProt P41229); test: Histone lysine demethylase AlphaLISA assay, KDM5C; assay type: biochemical; conditions: read-out: KDM5C HDME Inhibition IC50
T4 construct: 2-1560; purchased BPS; host or cells: Bac (baculovirus system)
Method in brief: as §1

T4 sequence (P41229 2-1560): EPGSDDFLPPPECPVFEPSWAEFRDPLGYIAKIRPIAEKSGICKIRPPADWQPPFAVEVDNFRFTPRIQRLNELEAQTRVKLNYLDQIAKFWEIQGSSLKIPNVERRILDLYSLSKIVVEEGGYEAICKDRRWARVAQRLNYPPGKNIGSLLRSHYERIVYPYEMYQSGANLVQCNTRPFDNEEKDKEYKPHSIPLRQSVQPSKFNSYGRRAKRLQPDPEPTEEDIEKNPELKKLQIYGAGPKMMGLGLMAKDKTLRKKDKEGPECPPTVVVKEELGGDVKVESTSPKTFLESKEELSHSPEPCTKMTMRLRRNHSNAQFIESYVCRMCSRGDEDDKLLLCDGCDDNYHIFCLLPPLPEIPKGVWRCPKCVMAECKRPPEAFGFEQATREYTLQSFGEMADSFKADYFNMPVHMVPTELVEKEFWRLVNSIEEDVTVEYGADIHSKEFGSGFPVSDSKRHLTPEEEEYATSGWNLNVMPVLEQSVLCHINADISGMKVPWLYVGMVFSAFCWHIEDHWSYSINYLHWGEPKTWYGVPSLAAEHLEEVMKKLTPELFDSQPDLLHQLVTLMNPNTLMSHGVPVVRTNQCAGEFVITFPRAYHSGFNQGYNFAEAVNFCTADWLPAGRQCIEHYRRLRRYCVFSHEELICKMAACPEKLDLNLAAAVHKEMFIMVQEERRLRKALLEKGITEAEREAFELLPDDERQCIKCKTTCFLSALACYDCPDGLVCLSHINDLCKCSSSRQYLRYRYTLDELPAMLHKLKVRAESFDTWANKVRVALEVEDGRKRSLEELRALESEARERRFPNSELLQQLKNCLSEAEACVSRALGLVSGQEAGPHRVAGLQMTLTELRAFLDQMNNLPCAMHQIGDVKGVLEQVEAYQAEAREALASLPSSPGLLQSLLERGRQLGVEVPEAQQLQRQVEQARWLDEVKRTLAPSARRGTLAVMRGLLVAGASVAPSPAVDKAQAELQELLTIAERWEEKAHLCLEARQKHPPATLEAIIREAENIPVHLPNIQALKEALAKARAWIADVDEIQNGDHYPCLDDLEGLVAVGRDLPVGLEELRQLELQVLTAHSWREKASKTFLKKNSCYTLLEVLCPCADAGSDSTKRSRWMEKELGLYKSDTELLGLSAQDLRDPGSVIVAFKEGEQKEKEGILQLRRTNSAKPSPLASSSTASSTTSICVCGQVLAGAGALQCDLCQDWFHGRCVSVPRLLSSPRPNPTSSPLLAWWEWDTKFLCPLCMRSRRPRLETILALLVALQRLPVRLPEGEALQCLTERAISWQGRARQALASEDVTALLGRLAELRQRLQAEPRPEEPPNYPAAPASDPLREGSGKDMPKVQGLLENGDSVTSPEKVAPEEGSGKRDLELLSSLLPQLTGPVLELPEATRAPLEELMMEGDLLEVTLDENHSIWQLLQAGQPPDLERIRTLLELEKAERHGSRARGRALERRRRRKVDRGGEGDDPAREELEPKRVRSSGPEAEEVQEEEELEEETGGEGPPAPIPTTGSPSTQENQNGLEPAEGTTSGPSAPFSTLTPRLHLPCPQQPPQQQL
T3 sequence (O15054 1043-1682 isoform O15054-1 limits assumed): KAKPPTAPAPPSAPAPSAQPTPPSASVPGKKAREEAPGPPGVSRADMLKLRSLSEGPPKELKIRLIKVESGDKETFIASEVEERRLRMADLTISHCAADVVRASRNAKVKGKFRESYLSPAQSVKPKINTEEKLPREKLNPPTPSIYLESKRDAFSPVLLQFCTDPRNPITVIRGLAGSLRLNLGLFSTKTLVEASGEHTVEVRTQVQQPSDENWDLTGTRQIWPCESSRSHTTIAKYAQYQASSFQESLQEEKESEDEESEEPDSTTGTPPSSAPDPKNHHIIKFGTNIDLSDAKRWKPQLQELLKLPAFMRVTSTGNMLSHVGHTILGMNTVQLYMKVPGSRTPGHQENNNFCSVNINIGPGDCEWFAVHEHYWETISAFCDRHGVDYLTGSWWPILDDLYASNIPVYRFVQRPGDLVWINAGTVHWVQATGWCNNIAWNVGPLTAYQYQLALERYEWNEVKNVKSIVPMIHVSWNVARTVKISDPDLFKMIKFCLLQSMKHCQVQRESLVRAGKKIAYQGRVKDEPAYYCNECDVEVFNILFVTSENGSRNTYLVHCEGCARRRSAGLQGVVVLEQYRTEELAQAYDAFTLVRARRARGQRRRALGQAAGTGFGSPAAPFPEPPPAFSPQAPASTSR

| SMILES | IC50 (KDM5B) | IC50 (KDM4A (JMJD2A)) | IC50 (KDM6B (JMJD3)) | IC50 (KDM5C (JARID1C)) |
| --- | --- | --- | --- | --- |
| C#CCN(C)C(=O)CNCc1cc(/C=N/C2CC2)ccn1 [Compound 56, 2-[({4-[N-cyclopropyl-carboximidoyl]-pyridin-2-yl}methyl)amino]-N-methyl-N-(prop-2-yn-1-yl)acetamide] | > 2.5 µM | 0.25 to 2.5 µM | > 2.5 µM | 0.25 to 2.5 µM |
| CCN(CC)CCCCNCc1cc(/C=N/CCO)ccn1 [Compound 61, 2-[{[2-({[4-(diethylamino)-butyl]amino}-methyl)pyridin-4-yl]methylidene}-amino]ethan-1-ol] | < 0.25 µM | > 2.5 µM | > 2.5 µM | < 0.25 µM |
| CCN(CC)CCCCNCc1cc(/C=N/CC(F)(F)C(F)(F)F)ccn1 [Compound 62, {[2-({[4-(diethylamino)-butyl]amino}methyl)pyridin-4-yl]methylidene} (2,2,3,3,3-pentafluoropropyl)-amine] | < 0.25 µM | > 2.5 µM | > 2.5 µM | < 0.25 µM |
| CCN(CCN(C)C)C(=O)CNCc1cc(/C=N/CCC2CCCCC2)ccn1 [Compound 63, 2-[({4-[[(2-cydohexylethyl)-imino]methyl]pyridin-2-yl}methyl)amino]-N-[2-(dimethylamino)-ethyl]-N-ethylacetamide] | < 0.25 µM | > 2.5 µM | > 2.5 µM | < 0.25 µM |
| CON=Cc1ccnc(CNCCCN(C)C)c1 [Compound 64, [3-(dimethylamino)-propyl]({4-[(methoxyimino)-methyl]pyridin-2-yl}methyl)amine] | > 2.5 µM | 0.25 to 2.5 µM | > 2.5 µM | > 2.5 µM |
| CCN(CC)CCCCNCc1cc(C2NCCN2C)ccn1 (stereo not shown) [Compound 65, [4-(diethylamino)-butyl]({[4-(1-methylimidazolidin-2-yl)pyridin-2-yl]methyl})amine] | < 0.25 µM | > 2.5 µM | > 2.5 µM | < 0.25 µM |
| CCN(CCN(C)C)C(=O)CNCc1cc(/C=N/CCO)ccn1 [Compound 66] | < 0.25 µM | < 0.25 µM | > 2.5 µM | < 0.25 µM |
| CN(C)C/C=C/CNCc1cc(C=O)ccn1 [Compound 98, 2-({[(2E)-4-(dimethylamino)but-2-en-1-yl]amino}-methyl)pyridine-4-carbaldehyde] | < 0.25 µM | > 2.5 µM | > 2.5 µM | < 0.25 µM |
| CN(C)C/C=C\CNCc1cc(C=O)ccn1 [Compound 99, 2-({[(2Z)-4-(dimethylamino)-but-2-en-1-yl]amino}methyl)-pyridine-4-carbaldehyde] | > 2.5 µM | > 2.5 µM | > 2.5 µM | < 0.25 µM |
| CCN(CCN(C)C)C(=O)CNCc1cc(C=O)ccn1 [Compound 101] | < 0.25 µM | < 0.25 µM | > 2.5 µM | < 0.25 µM |
| O=Cc1ccnc(CNCC(=O)N2CCC[C@@H]2CN2CCCC2)c1 [Compound 102, 2-[({2-oxo-2-[(2R)-2-(pyrrolidin-1-ylmethyl)pyrrolidin-1-yl]ethyl}amino)-methyl]pyridine-4-carbaldehyde] | 0.25 to 2.5 µM | > 2.5 µM | > 2.5 µM | < 0.25 µM |
| CN1CCN(C(=O)CNCc2cc(C=O)ccn2)CC1 [Compound 103, 2-({[2-(4-methylpiperazin-1-yl)-2-oxoethyl]-amino}methyl)-pyridine-4-carbaldehyde] | 0.25 to 2.5 µM | > 2.5 µM | > 2.5 µM | < 0.25 µM |
| O=Cc1ccnc(CNCC(=O)N2CCC(Cc3ccccc3)CC2)c1 [Compound 106, 2-({[2-(4-benzylpiperidin-1-yl)-2-oxoethyl]-amino}methyl)-pyridine-4-carbaldehyde] | > 2.5 µM | 0.25 to 2.5 µM | > 2.5 µM | > 2.5 µM |
| CCN(CC)CCCCNCc1cc(C=O)ccn1 [Compound 107, 2-({[4-(diethylamino)-butyl]amino}-methyl)pyridine-4-carbaldehyde] | < 0.25 µM | > 2.5 µM | > 2.5 µM | < 0.25 µM |
| CN(C)CCCCNCc1cc(C=O)ccn1 [Compound 108, 2-({[4-(dimethylamino)-butyl]amino}methyl)-pyridine-4-carbaldehyde] | < 0.25 µM | > 2.5 µM | > 2.5 µM | < 0.25 µM |
| CN(C)CCNCc1cc(C=O)ccn1 [Compound 110, 2-({[2-(dimethylamino)-ethyl]amino}methyl)-pyridine-4-carbaldehyde] | 0.25 to 2.5 µM | 0.25 to 2.5 µM | > 2.5 µM | < 0.25 µM |
| CCN(CC)CCCCNC(=O)CNCc1cc(C=O)ccn1 [Compound 112, N-[4-(diethylamino)-butyl]-2-{[(4-formylpyridin-2-yl)methyl]amino}-acetamide] | > 2.5 µM | < 0.25 µM | > 2.5 µM | < 0.25 µM |
| CN(C)CCCCCNCc1cc(C=O)ccn1 [Compound 114, 2-({[5-(dimethylamino)-pentyl]amino}methyl)-pyridine-4-carbaldehyde] | < 0.25 µM | > 2.5 µM | > 2.5 µM | < 0.25 µM |
| CCN(CC)CCCCN(Cc1cc(C=O)ccn1)C(=O)C(F)(F)F [Compound 115, N-[4-(diethylamino)butyl]-2,2,2-trifluoro-N-[(4-formylpyridin-2-yl)methyl]acetamide] | < 0.25 µM | 0.25 to 2.5 µM | > 2.5 µM | < 0.25 µM |
